Source: patent US20180179574A1, “SYSTEMS AND METHODS FOR CHARACTERIZATION OF […]” (The University of Chicago, priority 2015, published 2018)

Columns and labels:
[1] = target: T1, Leukocyte-LpL (Homo sapiens, UniProt P06858); experiment: Leukocyte LpL hydrolytic potential / lipase response to stimulation assay (fluorogenic ENZCHEK TG substrate); assay type: cell-based; conditions: leukocytes washed with heparin removing surface LpL
T1 construct: analyze the activity of endogenous cell-associated LpL from a blood sample; host or cells: primary leukocytes (buffy coat) from fresh whole blood
T1 sequence (P06858 28-475): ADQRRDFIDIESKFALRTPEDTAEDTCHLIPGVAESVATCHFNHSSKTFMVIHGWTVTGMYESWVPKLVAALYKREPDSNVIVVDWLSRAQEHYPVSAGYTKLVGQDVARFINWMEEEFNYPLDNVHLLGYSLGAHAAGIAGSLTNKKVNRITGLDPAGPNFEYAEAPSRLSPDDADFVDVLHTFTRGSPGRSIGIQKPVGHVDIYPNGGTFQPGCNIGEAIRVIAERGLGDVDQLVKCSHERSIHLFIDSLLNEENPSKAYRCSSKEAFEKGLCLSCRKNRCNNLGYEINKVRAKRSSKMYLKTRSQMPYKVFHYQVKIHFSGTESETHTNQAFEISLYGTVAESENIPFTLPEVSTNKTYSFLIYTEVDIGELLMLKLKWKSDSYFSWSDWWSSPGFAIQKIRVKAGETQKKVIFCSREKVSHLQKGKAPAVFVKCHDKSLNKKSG
Method: FIG. 6. Leukocyte-LpL activity is detectible and responsive to C-II51-79 and AV199-232 peptide stimulation. Leukocytes (buffy coat) was collected by centrifugation of fresh whole blood from healthy donors (Zen Bio Inc.), rinsed and then incubated with LpL reaction mix (A, B). Leukocytes were also incubated with […] CII51-79 and/or AV199-232 (A). […] Increasing fluorescent plate reader gain can increase sensitivity to low femto molar range (C).
Experiments were conducted during development of embodiments of the present invention using an in vitro assay that utilizes bovine milk LpL (SIGMA) diluted to ˜120 ng/ml in Tris-HCl, 0.15M NaCl (TBS), 1%(w/v) BSA, 0.015%(w/v) Zwittergent 3-14, pH 7.8+1 μM to 25 μM ENZCHEK substrate, prepared in black polypropylene microplates. […] Detection of product is performed with a fluorescent plate reader using excitation/emission wavelengths of 482 nm and 515 nm. The assay is sensitive to fmol/L of LpL (130% gain on reader) (FIG. 6C) and product accumulation increases linearly with increasing enzyme concentrations (FIG. 1A). The absolute product concentration is proportional to the relative fluorescence units (RFU) and can be calculated using BODIPY-C12 fatty acid (D3823, Life Technologies Inc.) as a standard and allows the determination of reaction rates (i.e. ng/ml/min) and Michaelis-Menten kinetic parameters. […]

[2] = system: HepG2; experiment: Lipase assay with live cells (HepG2), fluorogenic TG substrate; assay type: cell-based; conditions: HepG2 cells washed with heparin
Method: FIG. 2. The lipase assay is non-toxic and detects enzyme activity with live cells. The removal of the reaction mix from the cells (HepG2) stops substrate hydrolysis but is reinitiated once added back to the same cells (A).
Experiments were conducted during development of embodiments of the present invention using an in vitro assay that utilizes bovine milk LpL (SIGMA) diluted to ˜120 ng/ml in Tris-HCl, 0.15M NaCl (TBS), 1%(w/v) BSA, 0.015%(w/v) Zwittergent 3-14, pH 7.8+1 μM to 25 μM ENZCHEK substrate, prepared in black polypropylene microplates. In some embodiments, the lipase reaction is performed at room temperature or 37° C. for 10 min to 60 min. Detection of product is performed with a fluorescent plate reader using excitation/emission wavelengths of 482 nm and 515 nm. The assay is sensitive to fmol/L of LpL (130% gain on reader) (FIG. 6C) and product accumulation increases linearly with increasing enzyme concentrations (FIG. 1A). The absolute product concentration is proportional to the relative fluorescence units (RFU) and can be calculated using BODIPY-C12 fatty acid (D3823, Life Technologies Inc.) as a standard and allows the determination of reaction rates (i.e. ng/ml/min) and Michaelis-Menten kinetic parameters. […] Furthermore, the mild nature of the assay formulation allows LpL activity to be determined with live cells in cell culture or isolated cells (FIG. 2).

Leukocyte substrate hydrolysis after washing cells with heparin [1]: substrate hydrolysis was lost
Substance: heparin
Substrate hydrolysis by live cells after washing cells with heparin [2]: inhibits substrate hydrolysis
